# According to patent US20250304567A1, “PYRROLIDIONE DERIVATIVES AS INHIBITORS OF NF KAPPA B INDUCING KINASE” (priority 2022, published 2025):
# pIC50: −log10 of the molar value. Like-named read-outs stand apart in the source and are kept apart here.
# What was measured:
# [1] = test system: p-IKKa levels in L363 (NIK translocated multiple myeloma) cells; assay: Effect of compounds on p-IKKa levels in L363 (NIK translocated multiple myeloma) cells (AlphaLISA SureFire Ultra p-IKKa Ser176/180); type: cell-based, human; conditions: average if tested more than once, read-out: Assay 2 IC50
# How it was run: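 Phospho-IKKa (Ser176/180) in lysates quantified by AlphaLISA after 6 h compound exposure, 11-point threefold dilutions, 0.3% DMSO. L363 cells were pre-stimulated overnight and assayed with 250 ng/ml BAFF and 10 μM MG132; % inhibition fitted sigmoidally for IC50, duplicate curves.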
# [2] = molecular target: Recombinant Human NF-kappaB-Inducing Kinase (NIK/MAP3K14) (Homo sapiens, UniProt Q99558); assay: Inhibition of auto-phosphorylation of recombinant human NIK/MAP3K14 activity (AlphaScreen); type: biochemical; conditions: 5 μM ATP, 1 nM NIK, average if tested more than once
# Chain of Recombinant Human NF-kappaB-Inducing Kinase (NIK/MAP3K14) (Q99558 whole entry): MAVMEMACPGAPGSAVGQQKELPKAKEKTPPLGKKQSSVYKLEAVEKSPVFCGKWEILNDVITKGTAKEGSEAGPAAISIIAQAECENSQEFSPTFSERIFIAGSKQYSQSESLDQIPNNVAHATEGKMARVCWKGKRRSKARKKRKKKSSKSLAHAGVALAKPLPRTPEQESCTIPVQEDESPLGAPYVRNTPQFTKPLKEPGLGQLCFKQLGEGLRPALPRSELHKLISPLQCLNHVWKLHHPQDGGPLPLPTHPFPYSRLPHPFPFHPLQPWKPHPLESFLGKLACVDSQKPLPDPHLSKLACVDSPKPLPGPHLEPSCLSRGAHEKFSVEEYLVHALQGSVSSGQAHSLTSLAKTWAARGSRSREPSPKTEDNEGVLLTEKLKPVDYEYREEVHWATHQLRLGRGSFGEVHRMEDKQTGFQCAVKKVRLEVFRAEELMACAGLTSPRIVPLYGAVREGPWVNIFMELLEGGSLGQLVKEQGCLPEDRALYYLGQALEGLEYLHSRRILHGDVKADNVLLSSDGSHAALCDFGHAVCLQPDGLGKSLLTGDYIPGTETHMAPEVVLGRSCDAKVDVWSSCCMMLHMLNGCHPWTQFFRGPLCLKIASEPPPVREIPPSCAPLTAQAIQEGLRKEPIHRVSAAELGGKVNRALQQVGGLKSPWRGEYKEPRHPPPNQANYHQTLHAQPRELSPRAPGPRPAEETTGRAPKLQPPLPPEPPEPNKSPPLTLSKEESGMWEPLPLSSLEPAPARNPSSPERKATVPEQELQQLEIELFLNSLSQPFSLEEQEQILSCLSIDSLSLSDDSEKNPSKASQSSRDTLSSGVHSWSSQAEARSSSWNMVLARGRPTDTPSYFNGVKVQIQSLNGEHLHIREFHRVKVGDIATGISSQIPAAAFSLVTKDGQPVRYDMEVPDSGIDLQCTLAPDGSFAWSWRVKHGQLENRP
# How it was run: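 AlphaScreen detection of phospho-Ser176/180 after 1 nM GST-NIK auto-phosphorylates for 2 h at 25 °C with 5 μM ATP (50 mM Tris pH 7.5, 0.7% DMSO). IC50s come from sigmoidal curves of % inhibition against log dose, using enzyme-free, ATP-free low controls and full-activity high controls.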
# [3] = Homo sapiens, L-363, p-IKKa levels in L363 cells
Compound,"pIC50 [1, 3]",pIC50 [2],pIC50 ([1]; p-IKKa levels in L363 cells)
"CN1CC[C@@](O)(c2cccc(-c3csc(-c4ccnc(Nc5cnn(CC(C)(C)O)c5)n4)n3)c2)C1=O [Example 89, (R)-3-hydroxy-3-(3-(2-(2-((1-(2-hydroxy-2-methylpropyl)-1H-pyrazol-4-yl)amino)pyrimidin-4-yl)thiazol-4-yl)phenyl)-1-methylpyrrolidin-2-one]",> 7.00,> 7.00,–
CN1CC[C@@](O)(c2cccc(-c3nc(-c4ccnc(N[C@@H]5CNC(=O)C5)n4)cs3)c2)C1=O [Example 171],< 6.30,> 7.00,–
"CN1CC[C@@](O)(c2cccc(-c3nc(-c4ccnc(Nc5cnn(C6CCOC6)c5)n4)cs3)c2)C1=O (single isomer, unassigned) [Example 19]",–,> 7.00,> 7.00
"CN1CCC(O)(c2ccc(F)c(-c3csc(-c4ccnc(Nc5ccn(C)n5)n4)n3)c2)C1=O (single isomer, unassigned) [Example 28, 3-(4-fluoro-3-(2-(2-((1-methyl-1H-pyrazol-3-yl)amino)pyrimidin-4-yl)thiazol-4-yl)phenyl)-3-hydroxy-1-methylpyrrolidin-2-one]",–,> 7.00,> 7.00
"CN1CC[C@@](O)(c2cccc(-c3nc(-c4ccnc(Nc5cnn(CC(F)F)c5)n4)cs3)c2)C1=O [Example 141, (R)-3-(3-(4-(2-((1-(2,2-difluoroethyl)-1H-pyrazol-4-yl)amino)pyrimidin-4-yl)thiazol-2-yl)phenyl)-3-hydroxy-1-methylpyrrolidin-2-one]",> 7.00,> 7.00,–
"CN1CC[C@@](O)(c2cccc(-c3nc(-c4ccnc(Nc5cn(C)nc5OCC(F)(F)F)n4)cs3)c2)C1=O [Example 98, (R)-3-hydroxy-1-methyl-3-(3-(4-(2-((1-methyl-3-(2,2,2-trifluoroethoxy)-1H-pyrazol-4-yl)amino)pyrimidin-4-yl)thiazol-2-yl)phenyl)pyrrolidin-2-one]",> 7.00,> 7.00,–
"CN1CC[C@@](O)(c2cccc(-c3ccn(-c4ccnc(NC5COC5)n4)n3)c2)C1=O [Example 132, (R)-3-hydroxy-1-methyl-3-(3-(1-(2-(oxetan-3-ylamino)pyrimidin-4-yl)-1H-pyrazol-3-yl)phenyl)pyrrolidin-2-one]",6.30 to 7.00,> 7.00,–
"C[C@H](Nc1nccc(-n2ccc(-c3cccc([C@]4(O)CCN(C)C4=O)c3)n2)n1)c1ccnn1C (single isomer, unassigned) [Example 91]",6.30 to 7.00,> 7.00,–
"CN1CC[C@@](O)(c2cccc(-c3csc(-c4ccnc(Nc5cnn(C(CO)CO)c5)n4)n3)c2)C1=O [Example 44, (R)-3-(3-(2-(2-((1-(1,3-dihydroxypropan-2-yl)-1H-pyrazol-4-yl)amino)pyrimidin-4-yl)thiazol-4-yl)phenyl)-3-hydroxy-1-methylpyrrolidin-2-one]",< 6.30,> 7.00,–
CN1CC[C@@](O)(c2cccc(-c3nc(-c4ccnc(NCc5ccncn5)n4)cs3)c2)C1=O [Example 217],< 6.30,6.30 to 7.00,–
Cc1cc(CNc2nccc(-c3csc(-c4cccc([C@]5(O)CCN(C)C5=O)c4)n3)n2)nn1C [Example 209],< 6.30,> 7.00,–
CC(Nc1nccc(-c2csc(-c3cccc([C@]4(O)CCN(C)C4=O)c3)n2)n1)c1ncccn1 (stereo partly drawn) [Example 207],< 6.30,> 7.00,–
"CN1CC[C@@](O)(c2cccc(-c3nc(-c4ccnc(Nc5cn(C)nc5OC(F)F)n4)cs3)c2)C1=O [Example 99, (R)-3-(3-(4-(2-((3-(difluoromethoxy)-1-methyl-1H-pyrazol-4-yl)amino)pyrimidin-4-yl)thiazol-2-yl)phenyl)-3-hydroxy-1-methylpyrrolidin-2-one]",> 7.00,> 7.00,–
"Cc1nn(C)cc1Nc1nccc(-c2csc(-c3cccc([C@]4(O)CCN(C)C4=O)c3)n2)n1 [Example 269, (R)-3-(3-(4-(2-((1,3-dimethyl-1H-pyrazol-4-yl)amino)pyrimidin-4-yl)thiazol-2-yl)phenyl)-3-hydroxy-1-methylpyrrolidin-2-one]",> 7.00,> 7.00,–
CC(Nc1nccc(-c2csc(-c3cccc([C@]4(O)CCN(C)C4=O)c3)n2)n1)C(=O)N1CCN(C)CC1 (stereo partly drawn) [Example 229],< 6.30,6.30 to 7.00,–
CN1CC[C@@](O)(c2cccc(-c3nc(-c4ccnc(NCCn5cccn5)n4)cs3)c2)C1=O [Example 198],< 6.30,6.30 to 7.00,–
Cc1csc(Nc2nccc(-c3csc(-c4cccc([C@]5(O)CCN(C)C5=O)c4)n3)n2)n1 [Example 247],6.30 to 7.00,> 7.00,–

Compound,"pIC50 [1, 3]",pIC50 [2],pIC50 ([1]; p-IKKa levels in L363 cells)
"CN1CC[C@@](O)(c2cccc(-c3nc(-c4ccnc(Nc5ccnnc5)n4)cs3)c2)C1=O [Example 267, (R)-3-hydroxy-1-methyl-3-(3-(4-(2-(pyridazin-4-ylamino)pyrimidin-4-yl)thiazol-2-yl)phenyl)pyrrolidin-2-one]",< 6.30,< 6.30,–
"COc1nn(CC(F)(F)F)cc1Nc1nccc(-c2csc(-c3cccc([C@]4(O)CCN(C)C4=O)c3)n2)n1 [Example 101, (R)-3-hydroxy-3-(3-(4-(2-((3-methoxy-1-(2,2,2-trifluoroethyl)-1H-pyrazol-4-yl)amino)pyrimidin-4-yl)thiazol-2-yl)phenyl)-1-methylpyrrolidin-2-one]",> 7.00,> 7.00,–
"CN1CC[C@@](O)(c2cccc(-c3nc(-c4ccnc(Nc5cn(CCF)cn5)n4)cs3)c2)C1=O [Example 117, (R)-3-(3-(4-(2-((1-(2-fluoroethyl)-1H-imidazol-4-yl)amino)pyrimidin-4-yl)thiazol-2-yl)phenyl)-3-hydroxy-1-methylpyrrolidin-2-one]",6.30 to 7.00,> 7.00,–
"CN1CC[C@@](O)(c2cccc(-c3nc(-c4ccnc(NC5[C@@H]6COC[C@@H]56)n4)cs3)c2)C1=O (stereo partly drawn) [Example 115, (R)-3-(3-(4-(2-(((1R,5R)-3-oxabicyclo[3.1.0]hexan-6-yl)amino)pyrimidin-4-yl)thiazol-2-yl)phenyl)-3-hydroxy-1-methylpyrrolidin-2-one]",< 6.30,6.30 to 7.00,–
"CN1CC[C@@](O)(c2cccc(-c3nc(-c4ccnc(Nc5cn(C)nc5C(F)(F)F)n4)cs3)c2)C1=O [Example 280, (R)-3-Hydroxy-1-methyl-3-(3-(4-(2-((1-methyl-3-(trifluoromethyl)-1H-pyrazol-4-yl)amino)pyrimidin-4-yl)thiazol-2-yl)phenyl)pyrrolidin-2-one]",6.30 to 7.00,> 7.00,–
"Cc1nn(C(F)F)cc1Nc1nccc(-c2csc(-c3cccc([C@]4(O)CCN(C)C4=O)c3)n2)n1 [Example 140, (R)-3-(3-(4-(2-((1-(difluoromethyl)-3-methyl-1H-pyrazol-4-yl)amino)pyrimidin-4-yl)thiazol-2-yl)phenyl)-3-hydroxy-1-methylpyrrolidin-2-one]",> 7.00,> 7.00,–
"C[C@@H](Nc1nccc(-c2csc(-c3cccc([C@]4(O)CCN(C)C4=O)c3)n2)n1)c1cn[nH]c1 (single isomer, unassigned) [Example 139]",> 7.00,> 7.00,–
CN1CC[C@@](O)(c2cccc(-c3nc(-c4ccnc(NC5CCc6cccnc65)n4)cs3)c2)C1=O (stereo partly drawn) [Example 225],< 6.30,6.30 to 7.00,–
"CN1C[C@H](Nc2nccc(-c3csc(-c4cccc([C@]5(O)CCN(C)C5=O)c4)n3)n2)CC1=O (single isomer, unassigned) [Example 234]",< 6.30,6.30 to 7.00,–
"CN1CC[C@@](O)(c2cccc(-c3nc(-c4ccnc(Nc5ccccn5)n4)cs3)c2)C1=O [Example 77, (R)-3-hydroxy-1-methyl-3-(3-(4-(2-(pyridin-2-ylamino)pyrimidin-4-yl)thiazol-2-yl)phenyl)pyrrolidin-2-one]",< 6.30,> 7.00,–
"Cc1sc(-c2cccc([C@]3(O)CCN(C)C3=O)c2)nc1-c1ccnc(Nc2ccn(C)n2)n1 [Example 17, (R)-3-Hydroxy-1-methyl-3-(3-(5-methyl-4-(2-((1-methyl-1H-pyrazol-3-yl)amino)pyrimidin-4-yl)thiazol-2-yl)phenyl)pyrrolidin-2-one]",< 6.30,> 7.00,–
CN1CC[C@@](O)(c2cccc(-c3nc(-c4ccnc(NC5(c6ncccn6)CC5)n4)cs3)c2)C1=O [Example 226],< 6.30,< 6.30,–
"COCCn1cc(Nc2nccc(-c3nc(-c4cccc([C@]5(O)CCN(C)C5=O)c4)cs3)n2)cn1 [Example 86, (R)-3-hydroxy-3-(3-(2-(2-((1-(2-methoxyethyl)-1H-pyrazol-4-yl)amino)pyrimidin-4-yl)thiazol-4-yl)phenyl)-1-methylpyrrolidin-2-one]",> 7.00,> 7.00,–
"COc1cc(Nc2nccc(-c3nc(-c4cccc([C@]5(O)CCN(C)C5=O)c4)cs3)n2)n(C)n1 [Example 84, (R)-3-hydroxy-3-(3-(2-(2-((3-methoxy-1-methyl-1H-pyrazol-5-yl)amino)pyrimidin-4-yl)thiazol-4-yl)phenyl)-1-methylpyrrolidin-2-one]",< 6.30,< 6.30,–
CN1CC[C@@](O)(c2cccc(-c3nc(-c4ccnc(NC5CCN(C6COC6)CC5)n4)cs3)c2)C1=O [Example 228],< 6.30,< 6.30,–
Cc1ccc(CNc2nccc(-c3csc(-c4cccc([C@]5(O)CCN(C)C5=O)c4)n3)n2)nc1 [Example 203],< 6.30,> 7.00,–
